Test results: ChEMBL document CHEMBL4431371, “Targeting the Cystic Fibrosis Transmembrane Conductance Regulator (CFTR) Protein for the Treatment of Cystic Fibrosis” (ACS Med Chem Lett, 2016)

How the values were obtained:
[1] = system: Cystic fibrosis transmembrane conductance regulator (Homo sapiens), P13569 [F508del]; test: (§1) Corrector activity at CFTR F508del mutant (unknown origin) expressed in human CFBE41o cells incubated for 18 to 24 hrs by CSE-HRP assay; assay type: cell-based
[2] = target: T1, Cystic fibrosis transmembrane conductance regulator (Homo sapiens, UniProt P13569, F508DEL); test: as §1; assay type: cell-based
[3] = system: Cystic fibrosis transmembrane conductance regulator (Homo sapiens), P13569 [F508del]; test: (§2) Corrector activity at CFTR F508del mutant in human bronchial epithelial cells incubated for 18 to 24 hrs by TECC-based conductance assay
[4] = target: T1, Cystic fibrosis transmembrane conductance regulator; test: as §2

T1 sequence (P13569 as listed by the source): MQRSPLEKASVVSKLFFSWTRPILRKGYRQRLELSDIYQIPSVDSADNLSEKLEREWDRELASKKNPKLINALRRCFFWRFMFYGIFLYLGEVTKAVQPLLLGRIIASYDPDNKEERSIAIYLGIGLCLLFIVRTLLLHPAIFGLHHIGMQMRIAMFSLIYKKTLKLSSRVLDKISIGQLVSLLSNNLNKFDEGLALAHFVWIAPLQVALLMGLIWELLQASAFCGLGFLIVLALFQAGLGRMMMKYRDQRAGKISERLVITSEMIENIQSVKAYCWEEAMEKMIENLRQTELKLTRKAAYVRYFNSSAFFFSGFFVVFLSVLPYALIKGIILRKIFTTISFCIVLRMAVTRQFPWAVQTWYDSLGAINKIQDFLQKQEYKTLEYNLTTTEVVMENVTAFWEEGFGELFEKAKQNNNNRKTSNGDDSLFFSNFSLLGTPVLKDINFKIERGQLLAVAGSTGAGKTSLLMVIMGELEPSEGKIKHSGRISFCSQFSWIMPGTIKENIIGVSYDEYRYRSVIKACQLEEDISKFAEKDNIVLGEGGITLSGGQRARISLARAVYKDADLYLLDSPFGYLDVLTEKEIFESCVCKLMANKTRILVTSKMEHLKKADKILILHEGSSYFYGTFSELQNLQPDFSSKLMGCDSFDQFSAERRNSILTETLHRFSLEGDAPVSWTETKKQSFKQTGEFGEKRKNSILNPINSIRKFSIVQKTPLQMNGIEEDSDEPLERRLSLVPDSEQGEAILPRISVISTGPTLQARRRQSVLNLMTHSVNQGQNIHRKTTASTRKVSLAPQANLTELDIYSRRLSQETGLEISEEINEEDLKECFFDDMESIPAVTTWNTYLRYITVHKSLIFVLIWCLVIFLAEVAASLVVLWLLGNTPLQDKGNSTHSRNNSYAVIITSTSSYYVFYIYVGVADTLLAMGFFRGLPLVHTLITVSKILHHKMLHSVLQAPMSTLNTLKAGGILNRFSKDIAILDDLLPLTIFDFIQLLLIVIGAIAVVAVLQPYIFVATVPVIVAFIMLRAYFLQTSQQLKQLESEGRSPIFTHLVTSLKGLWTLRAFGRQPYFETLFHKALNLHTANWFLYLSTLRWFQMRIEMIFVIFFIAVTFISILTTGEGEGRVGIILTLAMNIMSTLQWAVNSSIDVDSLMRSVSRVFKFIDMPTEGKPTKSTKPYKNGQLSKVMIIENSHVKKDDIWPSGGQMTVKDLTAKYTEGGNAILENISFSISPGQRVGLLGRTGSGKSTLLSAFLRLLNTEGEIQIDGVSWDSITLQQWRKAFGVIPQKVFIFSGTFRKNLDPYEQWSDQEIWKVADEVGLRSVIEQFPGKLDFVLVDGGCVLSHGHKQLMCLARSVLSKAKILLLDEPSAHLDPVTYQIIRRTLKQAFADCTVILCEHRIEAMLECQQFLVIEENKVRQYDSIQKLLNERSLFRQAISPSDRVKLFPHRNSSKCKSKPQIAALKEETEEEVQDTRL
Sequence of Cystic fibrosis transmembrane conductance regulator (Homo sapiens), P13569 [F508del] (P13569 as listed by the source): as above

SMILES	max activation [1]	EC50 [2]	max activation [3]	EC50 [4]
CCOC(=O)c1cc(C)cc([C@H]2C[C@@H](NC(=O)C3(c4ccc5c(c4)OC(F)(F)O5)CC3)C[C@@H](c3ccccc3)O2)c1 (racemic)	106%	1160 nM	–	–
O=C(O)c1ccc([C@H]2C[C@@H](NC(=O)C3(c4ccc5c(c4)OC(F)(F)O5)CC3)CCO2)cc1 (racemic)	113%	2860 nM	73%	1340 nM
O=C(O)c1cccc([C@@H]2C[C@H](NC(=O)C3(c4ccc5c(c4)OC(F)(F)O5)CC3)C[C@H](c3ccccc3)O2)c1	16%	20000 nM	–	–

Now those with a lower EC50 [2], led by results:

max activation [1]	EC50 [2]	max activation [3]	EC50 [4]	SMILES
81%	300 nM	73%	260 nM	O=C(O)c1ccc([C@H]2C[C@@H](NC(=O)C3(c4ccc5c(c4)OC(F)(F)O5)CC3)C[C@@H](c3ccccc3)O2)cc1
109%	280 nM	94%	100 nM	O=C(O)c1cccc([C@H]2C[C@@H](NC(=O)C3(c4ccc5c(c4)OC(F)(F)O5)CC3)C[C@@H](c3ccccc3)O2)c1
71%	850 nM	–	–	O=C(O)c1cccc([C@H]2C[C@@H](NC(=O)C3(c4ccc5c(c4)OC(F)(F)O5)CC3)CCO2)c1 (racemic)
